Converted amounts (≈) assume the structure as drawn.
Columns and labels:
Type in all cases: functional
[1] = system: Streptococcus pneumoniae; assay: Antibacterial activity against penicillin-susceptible Streptococcus pneumoniae 1
[2] = system: Staphylococcus aureus; assay: Antibacterial activity against methicillin-susceptible Staphylococcus aureus Smith
[3] = system: Staphylococcus aureus; assay: Antibacterial activity against methicillin-resistant Staphylococcus aureus KMP9
[4] = system: Enterococcus faecium; assay: Antibacterial activity against vancomycin-resistant Enterococcus faecium KU1778
[5] = system: Streptococcus pneumoniae; assay: Antibacterial activity against penicillin-resistant Streptococcus pneumoniae KT2524
[6] = system: Streptococcus pyogenes; assay: Antibacterial activity against Streptococcus pyogenes ATCC 12344
[7] = system: Moraxella catarrhalis; assay: Antibacterial activity against Moraxella catarrhalis K1209
[8] = system: Haemophilus influenzae; assay: Antibacterial activity against Haemophilus influenzae TH13
[9] = system: Streptococcus pneumoniae; assay: Antibacterial activity against penicillin-susceptible Streptococcus pneumoniae ATCC 49619
[10] = system: Staphylococcus aureus; assay: Antibacterial activity against methicillin-susceptible Staphylococcus aureus Smith infected twice iv dosed mouse 1 and 4 hrs after inoculation
[11] = system: Staphylococcus aureus; assay: Antibacterial activity against methicillin-susceptible Staphylococcus aureus Smith infected iv dosed mouse 1 hr after inoculation

| SMILES | MIC [1] [µg/mL] | MIC [2] [µg/mL] | MIC [3] [µg/mL] | MIC [4] [µg/mL] | MIC [5] [µg/mL] | MIC [6] [µg/mL] | MIC [7] [µg/mL] | MIC [8] [µg/mL] | MIC [9] [µg/mL] | ED50 [10] [mg/kg] | ED50 [11] [mg/kg] |
| --- | --- | --- | --- | --- | --- | --- | --- | --- | --- | --- | --- |
| C=C[C@]1(C)C[C@@H](OC(=O)CSC2CCN(C(=O)CCn3cnc4c(N5CCOCC5)nc(N)nc43)CC2)[C@]2(C)[C@H](C)CC[C@]3(CCC(=O)[C@@H]32)[C@@H](C)[C@@H]1O | 0.1 (≈ 0.133 µM) | 0.2 (≈ 0.266 µM) | 0.2 (≈ 0.266 µM) | 0.2 (≈ 0.266 µM) | – | – | – | – | – | – | – |
| CC[C@]1(C)C[C@@H](OC(=O)CSc2nnc(N)[nH]2)[C@]2(C)[C@H](C)CC[C@]3(CCC(=O)[C@@H]32)[C@@H](C)[C@@H]1O | – | 0.5 (≈ 1.04 µM) | 2 (≈ 4.18 µM) | 0.25 (≈ 0.522 µM) | 0.5 (≈ 1.04 µM) | 0.25 (≈ 0.522 µM) | 0.032 (≈ 0.0669 µM) | 0.5 (≈ 1.04 µM) | 0.5 (≈ 1.04 µM) | 6.88 | – |
| C=C[C@]1(C)C[C@@H](OC(=O)CSC2CCN(C(=O)CCn3cnc4c(N)ncnc43)CC2)[C@]2(C)[C@H](C)CC[C@]3(CCC(=O)[C@@H]32)[C@@H](C)[C@@H]1O | 0.78 (≈ 1.17 µM) | 0.2 (≈ 0.3 µM) | 0.39 (≈ 0.585 µM) | 0.39 (≈ 0.585 µM) | – | – | – | – | – | – | > 3.13 |
| C=C[C@]1(C)C[C@@H](OC(=O)CSC2CCN(C(=O)Cn3cnc4cncnc43)CC2)[C@]2(C)[C@H](C)CC[C@]3(CCC(=O)[C@@H]32)[C@@H](C)[C@@H]1O | 1.56 (≈ 2.45 µM) | 0.2 (≈ 0.314 µM) | 0.2 (≈ 0.314 µM) | 0.2 (≈ 0.314 µM) | – | – | – | – | – | – | – |
| C=C[C@]1(C)C[C@@H](OC(=O)CSC2CCN(C(=O)CCn3cnc4cncnc43)CC2)[C@]2(C)[C@H](C)CC[C@]3(CCC(=O)[C@@H]32)[C@@H](C)[C@@H]1O | 0.1 (≈ 0.153 µM) | 0.05 (≈ 0.0767 µM) | 0.05 (≈ 0.0767 µM) | 0.05 (≈ 0.0767 µM) | – | – | – | – | – | – | > 3.13 |
| C=C[C@]1(C)C[C@@H](OC(=O)CSC2CCN(C(=O)CCn3cnc4c(N(C)C)nc(N)nc43)CC2)[C@]2(C)[C@H](C)CC[C@]3(CCC(=O)[C@@H]32)[C@@H](C)[C@@H]1O | 0.05 (≈ 0.0704 µM) | 0.1 (≈ 0.141 µM) | 0.1 (≈ 0.141 µM) | 0.1 (≈ 0.141 µM) | – | – | – | – | – | – | > 3.13 |
| C=C[C@]1(C)C[C@@H](OC(=O)CSC2CCN(C(=O)/C=C/n3cnc4cnc(N)nc43)CC2)[C@]2(C)[C@H](C)CC[C@]3(CCC(=O)[C@@H]32)[C@@H](C)[C@@H]1O | 0.39 (≈ 0.587 µM) | 0.1 (≈ 0.15 µM) | 0.2 (≈ 0.301 µM) | 0.2 (≈ 0.301 µM) | – | – | – | – | – | – | > 3.13 |
| C=C[C@]1(C)C[C@@H](OC(=O)CSC2CCN(C(=O)CCn3cnc4c(N)nc(N)nc43)CC2)[C@]2(C)[C@H](C)CC[C@]3(CCC(=O)[C@@H]32)[C@@H](C)[C@@H]1O | 0.025 (≈ 0.0367 µM) | 0.05 (≈ 0.0733 µM) | 0.1 (≈ 0.147 µM) | 0.05 (≈ 0.0733 µM) | – | – | – | – | – | – | > 3.13 |
| C=C[C@]1(C)C[C@@H](OC(=O)CSC2CCN(C(=O)CCCn3cnc4cnc(N)nc43)CC2)[C@]2(C)[C@H](C)CC[C@]3(CCC(=O)[C@@H]32)[C@@H](C)[C@@H]1O | 0.78 (≈ 1.15 µM) | 0.1 (≈ 0.147 µM) | 0.2 (≈ 0.294 µM) | 0.1 (≈ 0.147 µM) | – | – | – | – | – | – | > 3.13 |
| C=C[C@]1(C)C[C@@H](OC(=O)CSC2CCN(C(=O)CCn3cnc4c(N5CCCC5)nc(N)nc43)CC2)[C@]2(C)[C@H](C)CC[C@]3(CCC(=O)[C@@H]32)[C@@H](C)[C@@H]1O | 0.2 (≈ 0.272 µM) | 0.39 (≈ 0.53 µM) | 0.39 (≈ 0.53 µM) | 0.39 (≈ 0.53 µM) | – | – | – | – | – | – | > 3.13 |
| C=C[C@]1(C)C[C@@H](OC(=O)CSC2CCN(C(=O)CCn3cnc4ncncc43)CC2)[C@]2(C)[C@H](C)CC[C@]3(CCC(=O)[C@@H]32)[C@@H](C)[C@@H]1O | 0.1 (≈ 0.153 µM) | 0.1 (≈ 0.153 µM) | 0.1 (≈ 0.153 µM) | 0.1 (≈ 0.153 µM) | – | – | – | – | – | – | > 3.13 |
| C=C[C@]1(C)C[C@@H](OC(=O)CSC2CCN(C(=O)CCn3cnc4c(N5CCNCC5)nc(N)nc43)CC2)[C@]2(C)[C@H](C)CC[C@]3(CCC(=O)[C@@H]32)[C@@H](C)[C@@H]1O | 0.063 (≈ 0.0839 µM) | 0.25 (≈ 0.333 µM) | 0.5 (≈ 0.666 µM) | 0.25 (≈ 0.333 µM) | 0.063 (≈ 0.0839 µM) | 0.032 (≈ 0.0426 µM) | 0.25 (≈ 0.333 µM) | 1 (≈ 1.33 µM) | 0.063 (≈ 0.0839 µM) | 1.51 | < 3.13 |
| C=C[C@]1(C)C[C@@H](OC(=O)CSC2CCN(C(=O)CCn3cnc4c(N5CCN(C)CC5)nc(N)nc43)CC2)[C@]2(C)[C@H](C)CC[C@]3(CCC(=O)[C@@H]32)[C@@H](C)[C@@H]1O | – | 0.125 (≈ 0.163 µM) | 0.125 (≈ 0.163 µM) | 0.125 (≈ 0.163 µM) | 0.063 (≈ 0.0823 µM) | 0.063 (≈ 0.0823 µM) | 0.063 (≈ 0.0823 µM) | 2 (≈ 2.61 µM) | 0.125 (≈ 0.163 µM) | – | 8.83 |
| C=C[C@]1(C)C[C@@H](OC(=O)CSC2CCN(C(=O)CCn3cnc4c(NC)nc(N)nc43)CC2)[C@]2(C)[C@H](C)CC[C@]3(CCC(=O)[C@@H]32)[C@@H](C)[C@@H]1O | 0.025 (≈ 0.0359 µM) | 0.1 (≈ 0.144 µM) | 0.2 (≈ 0.287 µM) | 0.1 (≈ 0.144 µM) | – | – | – | – | – | – | > 3.13 |
| C=C[C@]1(C)C[C@@H](OC(=O)CSC2CCN(C(=O)CCn3cnc4c(N5CCC(CNC)C5)ncnc43)CC2)[C@]2(C)[C@H](C)CC[C@]3(CCC(=O)[C@@H]32)[C@@H](C)[C@@H]1O (some centres not stated) | – | 0.25 (≈ 0.327 µM) | 0.5 (≈ 0.654 µM) | 0.125 (≈ 0.164 µM) | 0.063 (≈ 0.0825 µM) | 0.016 (≈ 0.0209 µM) | 0.125 (≈ 0.164 µM) | 2 (≈ 2.62 µM) | 0.063 (≈ 0.0825 µM) | – | 0.76 |
| C=C[C@]1(C)C[C@@H](OC(=O)CSC2CCN(C(=O)CCn3cnc4cnc(N)nc43)CC2)[C@]2(C)[C@H](C)CC[C@]3(CCC(=O)[C@@H]32)[C@@H](C)[C@@H]1O | 0.05 (≈ 0.075 µM) | 0.05 (≈ 0.075 µM) | 0.05 (≈ 0.075 µM) | 0.05 (≈ 0.075 µM) | 0.063 (≈ 0.0945 µM) | 0.063 (≈ 0.0945 µM) | 0.25 (≈ 0.375 µM) | 2 (≈ 3 µM) | 0.125 (≈ 0.187 µM) | – | < 3.13 |
| C=C[C@]1(C)C[C@@H](OC(=O)CSC2CCN(C(=O)CCn3cnc4c(N5CCCC(N)C5)ncnc43)CC2)[C@]2(C)[C@H](C)CC[C@]3(CCC(=O)[C@@H]32)[C@@H](C)[C@@H]1O (some centres not stated) | – | 0.125 (≈ 0.167 µM) | 0.125 (≈ 0.167 µM) | 0.032 (≈ 0.0427 µM) | 0.032 (≈ 0.0427 µM) | 0.016 (≈ 0.0213 µM) | 0.032 (≈ 0.0427 µM) | 1 (≈ 1.33 µM) | 0.016 (≈ 0.0213 µM) | – | 2.21 |
| C=C[C@]1(C)C[C@@H](OC(=O)CSC2CCN(C(=O)CCn3cnc4c(N5CCC(NC)CC5)ncnc43)CC2)[C@]2(C)[C@H](C)CC[C@]3(CCC(=O)[C@@H]32)[C@@H](C)[C@@H]1O | – | 0.125 (≈ 0.164 µM) | 0.25 (≈ 0.327 µM) | 0.063 (≈ 0.0825 µM) | 0.063 (≈ 0.0825 µM) | 0.032 (≈ 0.0419 µM) | 0.125 (≈ 0.164 µM) | 2 (≈ 2.62 µM) | 0.063 (≈ 0.0825 µM) | – | 2.21 |
| C=C[C@]1(C)C[C@@H](OC(=O)CSC2CCN(C(=O)CCn3cnc4c(N5CC(NC)C5)nc(N)nc43)CC2)[C@]2(C)[C@H](C)CC[C@]3(CCC(=O)[C@@H]32)[C@@H](C)[C@@H]1O | – | 0.5 (≈ 0.666 µM) | 1 (≈ 1.33 µM) | 0.5 (≈ 0.666 µM) | 0.125 (≈ 0.166 µM) | 0.125 (≈ 0.166 µM) | 0.25 (≈ 0.333 µM) | 2 (≈ 2.66 µM) | 0.063 (≈ 0.0839 µM) | – | 3.97 |
| C=C[C@]1(C)C[C@@H](OC(=O)CSC2CCN(C(=O)CCn3cnc4c(N5CCC(CN)C5)nc(N)nc43)CC2)[C@]2(C)[C@H](C)CC[C@]3(CCC(=O)[C@@H]32)[C@@H](C)[C@@H]1O (some centres not stated) | – | 0.5 (≈ 0.654 µM) | 2 (≈ 2.61 µM) | 0.5 (≈ 0.654 µM) | 0.125 (≈ 0.163 µM) | 0.032 (≈ 0.0418 µM) | 0.125 (≈ 0.163 µM) | 4 (≈ 5.23 µM) | 0.063 (≈ 0.0823 µM) | – | 2.84 |
